Laboratory results from patent US20210253538A1, “AMINOPYRAZINES AND RELATED COMPOUNDS USEFUL AS MITOCHONDRIAL UNCOUPLERS” (VIRGINIA TECH INTELLECTUAL PROPERTIES, INC., priority 2018, published 2021).

Columns and labels:
[1] = test system: whole cells (NMuLi, C2C12, and L6 cells, isolated cardiomyocytes, human primary fibroblasts); assay: Oxygen consumption rate (OCR) in whole cells, Seahorse XF-24 Flux Analyzer; assay type: cell-based
Experimental: Biological activities of the compounds synthesized is determined by determining increase in oxygen consumption rate (OCR).
Oxygen consumption rate (OCR) in whole cells is measured in general accordance with the method of Kenwood B M et al. (Mol. Met. (2014) 3: 114-123).
OCR is measured using a Seahorse XF-24 Flux Analyzer (Seahorse Biosciences, North Billerica, Mass.). NMuLi, C2C12, and L6 cells are seeded in a Seahorse 24-well tissue culture plate at a density of 3.5×10^4 cells/well, isolated cardiomyocytes at a density of 4×10^4 cells/well, and human primary fibroblasts at a density of 1.1×10^4 cells/well. The cells are then allowed to adhere for 24 h. Prior to the assay, the media is changed to unbuffered DMEM containing pyruvate and glutamine (Gibco #12800-017, pH=7.4 at 37° C.) and the cells are equilibrated for 30 mins at 37° C. Compounds are injected during the assay and OCR is measured using 2 min measurement periods.
2-3 wells are used per condition and averaged over three plates (n=6-9). Statistical significance is determined by two-way ANOVA with Bonferroni's posttest.

[2] = patients consuming ~300 mg/d, over several months, without changes in food intake; cited from earlier work

SMILES | increase in oxygen consumption rate (OCR) [1] | Average weight shed [2]
FC(F)(F)Oc1ccc(Nc2ncc(C(F)(F)F)nc2OCc2ccccc2)cc1 [Compound 3-18, 3-(Benzyloxy)-N-(4-(Trifluoromethoxy)Phenyl)-5-(Trifluoromethyl)Pyrazin-2-Amine] | observable activity | 
Oc1nc(C(F)(F)F)cnc1Nc1ccc(OC(F)(F)F)cc1 [Compound 3-19, 3-((4-(Trifluoromethoxy)Phenyl)Amino)-6-(Trifluoromethyl)Pyrazin-2-Ol] | observable activity | 
Oc1nc(-c2ccc(C(F)(F)F)cc2)cnc1Nc1ccc(OC(F)(F)F)cc1 [Compound 3-26, 3-((4-(Trifluoromethoxy)Phenyl)Amino)-6-(4-(Trifluoromethyl)Phenyl) Pyrazin-2-Ol] | observable activity | 
O=[N+]([O-])c1ccc(O)c([N+](=O)[O-])c1 [DNP, 2,4-dinitrophenol] |  | 1.5 pounds per week
